The target in this experiment is T1, HIS-TGFβR1 T204D (Homo sapiens, UniProt P36897, T204D).
T1 sequence (P36897 34-503 T204D): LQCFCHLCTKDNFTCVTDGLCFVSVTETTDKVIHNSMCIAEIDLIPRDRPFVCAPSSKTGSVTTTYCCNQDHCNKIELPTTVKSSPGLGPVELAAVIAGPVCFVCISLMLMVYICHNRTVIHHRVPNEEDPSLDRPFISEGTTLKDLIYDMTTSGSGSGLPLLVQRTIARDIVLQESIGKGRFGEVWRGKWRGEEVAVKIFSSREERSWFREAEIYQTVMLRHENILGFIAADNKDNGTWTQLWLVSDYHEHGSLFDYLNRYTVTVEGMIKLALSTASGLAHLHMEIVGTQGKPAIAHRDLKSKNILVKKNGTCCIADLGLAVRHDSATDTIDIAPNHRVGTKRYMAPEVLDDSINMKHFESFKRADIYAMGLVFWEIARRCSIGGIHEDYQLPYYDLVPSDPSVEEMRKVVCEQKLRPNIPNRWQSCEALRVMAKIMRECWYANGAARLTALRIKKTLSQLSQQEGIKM
Description: HTRF probe-displacement assay with HIS-TGFβR1 T204D. As to conditions: 1 nM HIS-TGFβR1 T204D, labeled probe at Kd, 1 hour at room temperature. It counts as binding. How it is done: The reaction is incubated for 1 hour at room temperature and the HTRF signal was measured on an Envision plate reader (Ex: 340 nm; Em: 520 nm/495 nm). Inhibition data were calculated by comparison to no enzyme control reactions for 100% inhibition and vehicle-only reactions for 0% inhibition. The final concentration of reagents in the assay are 1 nM HIS-TGFβR1 T204D or HIS-TGFβR2 WT, 0.2 nM anti-HIS detection antibody, labeled small molecule probe (at Kd) and 0.5% DMSO. Dose response curves were generated to determine the concentration required inhibiting 50% of kinase activity (IC50). Compounds were dissolved at 10 mM in dimethylsulfoxide (DMSO) and evaluated at eleven concentrations. IC50 values were derived by non-linear regression analysis.

Our source for the IC50 values is patent US20190292179A1 (BRISTOL-MYERS SQUIBB COMPANY, priority 2016, published 2019).

The compound `N#Cc1cnc2ccc(-c3c[nH]nc3-c3cccc(C(F)(F)F)n3)cn12` [Example 1, 6-(3-(6-(trifluoromethyl)pyridin-2-yl)-1H-pyrazol-4-yl)imidazo[1,2-a]pyridine-3-carbonitrile] yielded an IC50 of 0.001 µM.

For the compound `FC(F)(F)c1cccc(-c2n[nH]cc2-c2ccc3nccn3c2)n1` [Example 3, 6-(3-(6-(trifluoromethyl)pyridin-2-yl)-1H-pyrazol-4-yl)imidazo[1,2-a]pyridine], the IC50 was 0.001 µM.

Regarding `N#Cc1cnc2ccc(-c3cn(CC(F)F)nc3-c3cccc(C(F)(F)F)n3)cn12` [Example 7, 6-(1-(2,2-difluoroethyl)-3-(6-(trifluoromethyl)pyridin-2-yl)-1H-pyrazol-4-yl)imidazo[1,2-a]pyridine-3-carbonitrile], the IC50 is 0.008 µM.

In turn, `NC(=O)c1cnc2ccc(-c3cn(CC(F)F)nc3-c3cccc(C(F)(F)F)n3)cn12` [Example 8, 6-(1-(2,2-difluoroethyl)-3-(6-(trifluoromethyl)pyridin-2-yl)-1H-pyrazol-4-yl)imidazo[1,2-a]pyridine-3-carboxamide] came in with an IC50 of 0.006 µM.

Regarding `Cn1cc(-c2ccc3ncc(C#N)n3c2)c(-c2cccc(C(F)(F)F)n2)n1` [Example 9, 6-(1-methyl-3-(6-(trifluoromethyl)pyridin-2-yl)-1H-pyrazol-4-yl)imidazo[1,2-a]pyridine-3-carbonitrile], the IC50 stood at 0.024 µM.

`O=C(Nc1cnc2ccc(-c3c[nH]nc3-c3ccc(F)cc3)cn12)C(F)(F)F` [Example 16, 2,2,2-trifluoro-N-(6-(3-(4-fluorophenyl)-1H-pyrazol-4-yl)imidazo[1,2-a]pyridin-3-yl)acetamide]: the IC50 was determined as 0.187 µM. This IC50 lies about 7.8-fold higher than the previous one.

`Nc1cc(-c2c[nH]nc2-c2ccc(F)cc2)cn2ccnc12` [Example 32, 6-(3-(4-fluorophenyl)-1H-pyrazol-4-yl)imidazo[1,2-a]pyridin-8-amine] had an IC50 of 0.465 µM.

`Cc1cccc(-c2nn(C)cc2-c2ccc3ncc(C(C)(C)O)n3c2)n1` [Example 52] registered an IC50 of 0.007 µM.

Consider `Cc1cccc(-c2nn(C)cc2-c2ccc3ncc(NC(C)(C)C)n3c2)n1` [Example 53, N-(tert-butyl)-6-(1-methyl-3-(6-methylpyridin-2-yl)-1H-pyrazol-4-yl)imidazo[1,2-a]pyridin-3-amine], for which the concentration for half-maximal inhibition (IC50) worked out at 0.03 µM. This IC50 is about 4.3-fold higher than that of the compound before.

Regarding `Cc1cccc(-c2nn(C)cc2-c2ccc3ncc(NC(=O)C(F)(F)F)n3c2)n1` [Example 54], the IC50 was found to be 0.079 µM.

`CC(=O)Nc1cnc2ccc(-c3c[nH]nc3-c3ccc(F)cc3)nn12` [Example 58, N-(6-(3-(4-fluorophenyl)-1H-pyrazol-4-yl)imidazo[1,2-b]pyridazin-3-yl)acetamide]: the IC50 came to 0.025 µM.

For `O=C(O)c1cnc2ccc(-c3c[nH]nc3-c3ccc(F)cc3)cn12` [Example 60, 6-(3-(4-fluorophenyl)-1H-pyrazol-4-yl)imidazo[1,2-a]pyridine-3-carboxylic acid], the IC50 was determined as 0.012 µM.

With `CC(C)c1[nH]nc(-c2ccc(F)cc2)c1-c1ccc2nccn2c1` [Example 69, 6-(3-(4-fluorophenyl)-5-isopropyl-1H-pyrazol-4-yl)imidazo [1,2-a]pyridine], the IC50 worked out at 0.007 µM.

Consider `CC(C)c1nn(C)c(-c2ccc(F)cc2)c1-c1ccc2ncc(C(N)=O)n2c1` [Example 71], for which the IC50 stood at 0.145 µM. Against the preceding compound, the IC50 is about 21-fold higher.

`CC(C)c1nn(C)c(-c2ccc(F)cc2)c1-c1ccc2ncc(C(C)(C)O)n2c1` [Example 73, 2-(6-(5-(4-fluorophenyl)-3-isopropyl-1-methyl-1H-pyrazol-4-yl)imidazo[1,2-a]pyridin-3-yl)propan-2-ol] yielded an IC50 of 9.86 µM.

Turning to `CC(C)c1c(-c2ccc3ncc(C(C)(C)O)n3c2)c(-c2ccc(F)cc2)nn1C` [Example 74, 2-(6-(3-(4-fluorophenyl)-5-isopropyl-1-methyl-1H-pyrazol-4-yl)imidazo[1,2-a]pyridin-3-yl)propan-2-ol], the IC50 was 0.374 µM.

The compound `CC(C)c1[nH]nc(-c2ccc(Cl)cc2)c1-c1ccc2ncc(C#N)n2c1` [Example 75, 6-(3-(4-chlorophenyl)-5-isopropyl-1H-pyrazol-4-yl)imidazo[1,2-a]pyridine-3-carbonitrile] yielded an IC50 of 0.054 µM.

For `CC(C)c1[nH]nc(-c2ccc(Cl)cc2)c1-c1ccc2nccn2c1` [Example 77, 6-(3-(4-chlorophenyl)-5-isopropyl-1H-pyrazol-4-yl)imidazo[1,2-a]pyridine], the IC50 was found to be 0.144 µM. Compared with the last compound, the IC50 is about 2.7-fold higher.

`Cc1cc(-c2n[nH]c(C(C)C)c2-c2ccc3nccn3c2)ccc1F` [Example 80, 6-(3-(4-fluoro-3-methylphenyl)-5-isopropyl-1H-pyrazol-4-yl)imidazo[1,2-a]pyridine]: the IC50 turned out to be 0.001 µM. Against the preceding compound, the IC50 is about 140-fold lower.

Compound `CCc1[nH]nc(-c2ccc(F)cc2)c1-c1ccc2ncc(C#N)n2c1` [Example 81, 6-(5-ethyl-3-(4-fluorophenyl)-1H-pyrazol-4-yl)imidazo[1,2-a]pyridine-3-carbonitrile] displayed an IC50 of 0.006 µM.

Regarding `CCc1[nH]nc(-c2ccc(F)cc2)c1-c1ccc2nccn2c1` [Example 83, 6-(5-ethyl-3-(4-fluorophenyl)-1H-pyrazol-4-yl)imidazo[1,2-a]pyridine], the IC50 came out at 0.017 µM.

`CC(C)(O)c1cnc2ccc(-c3c(-c4ccc(F)cc4)n[nH]c3C3CC3)cn12` [Example 89, 2-(6-(5-cyclopropyl-3-(4-fluorophenyl)-1H-pyrazol-4-yl)imidazo[1,2-a]pyridin-3-yl)propan-2-ol]: the IC50 was determined as 0.01 µM.

Turning to `OCc1cnc2ccc(-c3c(-c4ccc(F)cc4)n[nH]c3C3CC3)cn12` [Example 90, (6-(5-cyclopropyl-3-(4-fluorophenyl)-1H-pyrazol-4-yl)imidazo[1,2-a]pyridin-3-yl)methanol], the IC50 is 0.004 µM.

In turn, `CC(O)c1cnc2ccc(-c3c(-c4ccc(F)cc4)n[nH]c3C3CC3)cn12` (centres unmarked) [Example 91, 1-(6-(5-cyclopropyl-3-(4-fluorophenyl)-1H-pyrazol-4-yl)imidazo[1,2-a]pyridin-3-yl)ethanol] returned an IC50 of 0.008 µM.

The compound `Cn1nc(C2CC2)c(-c2ccc3ncc(C(N)=O)n3c2)c1-c1ccc(F)cc1` [Example 95, 6-(3-cyclopropyl-5-(4-fluorophenyl)-1-methyl-1H-pyrazol-4-yl)imidazo[1,2-a]pyridine-3-carboxamide] registered an IC50 of 0.058 µM.

For `N#Cc1cnc2ccc(-c3c(-c4ccc(Cl)cc4)n[nH]c3C3CC3)cn12` [Example 96, 6-(3-(4-chlorophenyl)-5-cyclopropyl-1H-pyrazol-4-yl)imidazo[1,2-a]pyridine-3-carbonitrile], the IC50 amounted to 0.07 µM.

For `Clc1ccc(-c2n[nH]c(C3CC3)c2-c2ccc3nccn3c2)cc1` [Example 98, 6-(3-(4-chlorophenyl)-5-cyclopropyl-1H-pyrazol-4-yl)imidazo[1,2-a]pyridine], the IC50 turned out to be 0.05 µM.

For the compound `Cc1cc(-c2n[nH]c(C3CC3)c2-c2ccc3nccn3c2)ccc1F` [Example 101, 6-(5-cyclopropyl-3-(4-fluoro-3-methylphenyl)-1H-pyrazol-4-yl)imidazo[1,2-a]pyridine], the IC50 is 0.001 µM.

In the case of `Fc1ccc(-c2n[nH]c(C3CC3)c2-c2ccc3ncc(F)n3c2)cc1` [Example 102, 6-(5-cyclopropyl-3-(4-fluorophenyl)-1H-pyrazol-4-yl)-3-fluoroimidazo[1,2-a]pyridine], the IC50 is 0.014 µM.
